In patent US20240228555A9, “ANTIMICROBIAL PEPTIDOMIMETICS” (Basilea Pharmaceutica International AG, Allschwil, priority 2020, published 2024):
Where a SMILES comes first, the peptide text is derived from it. Bridges are numbered along the chain shown (N, C = ends). [ ]: non-standard residue; d: D form. Orn(iPr) = CC(C)NCCC[C@H](N)C(=O)O; Dab(iPr) = CC(C)NCC[C@H](N)C(=O)O; Hyp = O=C(O)[C@@H]1C[C@@H](O)CN1; Pen = CC(C)(S)[C@H](N)C(=O)O; dDab = NCC[C@@H](N)C(=O)O; Dab = NCC[C@H](N)C(=O)O

Columns and labels:
[1] = system: Klebsiella pneumoniae SSI3010; details: SSI3010
Procedure, shortened: (§1)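 Broth microdilution; cation-adjusted MHII; inoculum ~5×10^5 CFU/mL from 0.5 McFarland saline suspension; peptide two-fold serial dilutions; polysorbate 80 0.002% final; peptide stock 1 mg/mL in water.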

[2] = system: Escherichia coli ATCC 25922; details: ATCC 25922
Procedure, shortened: as §1

[3] = system: Escherichia coli MCR-1 Af 45; details: Mueller-Hinton broth II, no visible growth after 18-20 hours at 35° C.
Procedure, shortened: as §1

[4] = system: human red blood cells (hRBC); assay type: cell-based; details: red cells of human, 1 h, 0.2 g/L
Procedure, shortened: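 PBS-washed human erythrocytes (20% v/v) were incubated with compounds at 200 μg/mL for 1 h at 37° C with shaking. Supernatant OD540 was read after 8-fold dilution; hemolysis % = OD540 peptide / OD540 of the 100% lysis control (2.5% Triton X-100 in H2O) ×100, with PBS as 0%.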

SMILES	Klebsiella pneumoniae SSI3010 MIC [1] [µg/mL]	Escherichia coli ATCC 25922 MIC [2] [µg/mL]	Escherichia coli MCR-1 Af 45 MIC [3] [µg/mL]	Hemolysis at 0.2 g/L [4] [%]
CC[C@H](C)[C@H](NC(=O)[C@@H]1C[C@@H](O)CN1C(=O)[C@@H](N)C(C)C)C(=O)N[C@@H](CCN)C(=O)N[C@@H](Cc1ccc(O)cc1)C(=O)N[C@@H]1C(=O)N[C@@H](CC(N)=O)C(=O)N[C@@H](CCCNC(=N)N)C(=O)N[C@@H](CCN)C(=O)N[C@@H]([C@@H](C)O)C(=O)N[C@H](CCN)C(=O)N[C@@H](CCCNC(N)=O)C(=O)N[C@H](C(=O)N[C@@H](CCN)C(=O)N[C@@H](CO)C(=O)N[C@@H](Cc2ccc(O)cc2)C(=O)O)CSSC1(C)C [Example 108, Val-Hyp-Ile-Dab-Tyr-Pen-Asn-Arg-Dab-Thr-^DDab-Cit-Cys-Dab-Ser-Tyr] (HELM PEPTIDE1{V.[Hyp].I.[Dab].Y.[Pen].N.R.[Dab].T.[NCC[C@@H](N[*:1])C(=O)[*:2]].[Cit].C.[Dab].S.Y}$PEPTIDE1,PEPTIDE1,6:R3-13:R3$$$V2.0)	0.25	0.25	0.125	<1
CC[C@H](C)[C@H](NC(=O)[C@@H](NC(=O)[C@@H]1C[C@@H](O)CN1C(=O)[C@@H](N)C(C)C)[C@@H](C)CC)C(=O)N[C@@H](Cc1ccc(O)cc1)C(=O)N[C@@H]1C(=O)N[C@@H](CC(N)=O)C(=O)N[C@@H](CCCNC(=N)N)C(=O)N[C@@H](CCN)C(=O)N[C@@H](CO)C(=O)N[C@H](CCN)C(=O)N[C@@H](CCCCN)C(=O)N[C@H](C(=O)N[C@@H](CCN)C(=O)N[C@@H](CCCN)C(=O)N[C@@H](Cc2ccc(O)cc2)C(=O)O)CSSC1(C)C [Example 86, Val-Hyp-Ile-Ile-Tyr-Pen-Asn-Arg-Dab-Ser-^DDab-Lys-Cys-Dab-Orn-Tyr] (HELM PEPTIDE1{V.[Hyp].I.I.Y.[Pen].N.R.[Dab].S.[NCC[C@@H](N[*:1])C(=O)[*:2]].K.C.[Dab].[Orn].Y}$PEPTIDE1,PEPTIDE1,6:R3-13:R3$$$V2.0)	0.25	0.125	0.0625	<1
CC[C@H](C)[C@H](NC(=O)[C@@H]1C[C@@H](O)CN1C(=O)[C@@H](N)C(C)C)C(=O)N[C@H](C(=O)N[C@@H](Cc1ccc(O)cc1)C(=O)N[C@@H]1C(=O)N[C@@H](CC(N)=O)C(=O)N[C@@H](CCCNC(=N)N)C(=O)N[C@@H](CCNC(C)C)C(=O)N[C@@H]([C@@H](C)O)C(=O)N[C@H](CCN)C(=O)N[C@@H](CCCCN)C(=O)N[C@H](C(=O)N[C@@H](CCN)C(=O)N[C@@H](CCCNC(C)C)C(=O)N[C@@H](Cc2ccc(O)cc2)C(=O)O)CSSC1(C)C)[C@@H](C)O [Example 134, Hyp-Ile-Thr-Tyr-Pen-Asn-Arg-Dab(iPr)-Thr-^DDab-Lys-Cys-Dab-Orn(iPr)-Tyr] (H-V[Hyp]ITY[Pen]NR[Dab(iPr)]T[dDab]KC[Dab][Orn(iPr)]Y-OH; disulfide 6-13)	0.5	0.125	0.25	1
CC[C@H](C)[C@H](NC(=O)[C@@H](NC(=O)[C@@H]1C[C@@H](O)CN1C(=O)[C@@H](N)C(C)C)[C@@H](C)CC)C(=O)N[C@@H](Cc1ccc(O)cc1)C(=O)N[C@@H]1C(=O)N[C@@H](CC(N)=O)C(=O)N[C@@H](CCCNC(=N)N)C(=O)N[C@@H](CCN)C(=O)N[C@@H]([C@@H](C)O)C(=O)N[C@H](CCN)C(=O)N[C@@H]([C@@H](C)CC)C(=O)N[C@H](C(=O)N[C@@H](CCN)C(=O)N[C@@H](CCCNC(=N)N)C(=O)N[C@@H](Cc2ccc(O)cc2)C(=O)O)CSSC1(C)C [Example 87, Val-Hyp-Ile-Ile-Tyr-Pen-Asn-Arg-Dab-Thr-^DDab-Ile-Cys-Dab-Arg-Tyr] (HELM PEPTIDE1{V.[Hyp].I.I.Y.[Pen].N.R.[Dab].T.[NCC[C@@H](N[*:1])C(=O)[*:2]].I.C.[Dab].R.Y}$PEPTIDE1,PEPTIDE1,6:R3-13:R3$$$V2.0)	0.25	0.125	0.125	<1
CC[C@H](C)[C@H](NC(=O)[C@@H](NC(=O)[C@@H]1C[C@@H](O)CN1C(=O)[C@@H](N)C(C)C)[C@@H](C)CC)C(=O)N[C@@H](Cc1ccc(O)cc1)C(=O)N[C@@H]1C(=O)N[C@@H](CC(N)=O)C(=O)N[C@@H](CCCNC(=N)N)C(=O)N[C@@H](CCN)C(=O)N[C@@H](CO)C(=O)N[C@H](CCN)C(=O)N[C@@H]([C@@H](C)CC)C(=O)N[C@H](C(=O)N[C@@H](CCN)C(=O)N[C@@H](CCCN)C(=O)N[C@@H](Cc2ccc(O)cc2)C(=O)O)CSSC1(C)C [Example 96, Val-Hyp-Ile-Ile-Tyr-Pen-Asn-Arg-Dab-Ser-^DDab-Ile-Cys-Dab-Orn-Tyr] (HELM PEPTIDE1{V.[Hyp].I.I.Y.[Pen].N.R.[Dab].S.[NCC[C@@H](N[*:1])C(=O)[*:2]].I.C.[Dab].[Orn].Y}$PEPTIDE1,PEPTIDE1,6:R3-13:R3$$$V2.0)	0.5	0.25	0.25	<1
CC[C@H](C)[C@H](NC(=O)[C@@H](NC(=O)[C@@H]1C[C@@H](N)CN1C(=O)[C@@H](N)C(C)C)[C@@H](C)CC)C(=O)N[C@@H](Cc1ccc(O)cc1)C(=O)N[C@@H]1C(=O)N[C@@H](CC(N)=O)C(=O)N[C@@H](CCCNC(=N)N)C(=O)N[C@@H](CCN)C(=O)N[C@@H]([C@@H](C)O)C(=O)N[C@H](CCN)C(=O)N[C@@H](CCCNC(N)=O)C(=O)N[C@H](C(=O)N[C@@H](CCN)C(=O)N[C@@H](CCCNC(=N)N)C(=O)N[C@@H](Cc2ccc(O)cc2)C(=O)O)CSSC1(C)C [Example 91, Val-Pro((4R)NH2)-Ile-Ile-Tyr-Pen-Asn-Arg-Dab-Thr-^DDab-Cit-Cys-Dab-Arg-Tyr] (HELM PEPTIDE1{V.[N[C@@H]1C[C@@H](C(=O)[*:2])N([*:1])C1].I.I.Y.[Pen].N.R.[Dab].T.[NCC[C@@H](N[*:1])C(=O)[*:2]].[Cit].C.[Dab].R.Y}$PEPTIDE1,PEPTIDE1,6:R3-13:R3$$$V2.0)	0.25	0.25	0.03125	<1
CC[C@H](C)[C@H](NC(=O)[C@@H](NC(=O)[C@@H]1C[C@@H](N)CN1C(=O)[C@@H](N)C(C)C)[C@@H](C)CC)C(=O)N[C@@H](Cc1ccc(O)cc1)C(=O)N[C@@H]1C(=O)N[C@@H](CC(N)=O)C(=O)N[C@@H](CCCNC(=N)N)C(=O)N[C@@H](CCN)C(=O)N[C@@H]([C@@H](C)O)C(=O)N[C@H](CCN)C(=O)N[C@@H](CCCCN)C(=O)N[C@H](C(=O)N[C@@H](CCN)C(=O)N[C@H](C(=O)N[C@@H](Cc2ccc(O)cc2)C(=O)O)[C@@H](C)O)CSSC1(C)C [Example 109, Val-Pro((4R)NH2)-Ile-Ile-Tyr-Pen-Asn-Arg-Dab-Thr-^DDab-Lys-Cys-Dab-Thr-Tyr] (HELM PEPTIDE1{V.[N[C@@H]1C[C@@H](C(=O)[*:2])N([*:1])C1].I.I.Y.[Pen].N.R.[Dab].T.[NCC[C@@H](N[*:1])C(=O)[*:2]].K.C.[Dab].T.Y}$PEPTIDE1,PEPTIDE1,6:R3-13:R3$$$V2.0)	0.25	0.125	0.125	<1
CC[C@H](C)[C@H](NC(=O)[C@@H](NC(=O)[C@@H]1C[C@@H](O)CN1C(=O)[C@@H](N)C(C)C)[C@@H](C)CC)C(=O)N[C@@H](Cc1ccc(O)cc1)C(=O)N[C@@H]1C(=O)N[C@@H](CC(N)=O)C(=O)N[C@@H](CCCNC(=N)N)C(=O)N[C@@H](CCCCN)C(=O)N[C@@H]([C@@H](C)O)C(=O)N[C@H](CCN)C(=O)N[C@@H](CCCCN)C(=O)N[C@H](C(=O)N[C@@H](CCCCN)C(=O)N[C@@H](CCCNC(=N)N)C(=O)N[C@@H](Cc2ccc(O)cc2)C(=O)O)CSSC1(C)C [Example 82, Val-Hyp-Ile-Ile-Tyr-Pen-Asn-Arg-Lys-Thr-^DDab-Lys-Cys-Lys-Arg-Tyr] (HELM PEPTIDE1{V.[Hyp].I.I.Y.[Pen].N.R.K.T.[NCC[C@@H](N[*:1])C(=O)[*:2]].K.C.K.R.Y}$PEPTIDE1,PEPTIDE1,6:R3-13:R3$$$V2.0)	0.25	0.125	0.125	<1
CC[C@H](C)[C@@H]1NC(=O)[C@@H](NC(=O)[C@H](Cc2ccc(O)cc2)NC(=O)[C@@H](NC(=O)[C@@H](NC(=O)[C@@H]2C[C@@H](O)CN2C(=O)[C@@H](N)C(C)C)[C@@H](C)CC)[C@@H](C)O)C(C)(C)SSC[C@@H](C(=O)N[C@@H](CCN)C(=O)N[C@@H](CCCN)C(=O)N[C@@H](Cc2ccc(O)cc2)C(=O)O)NC(=O)[C@H](CCCCN)NC(=O)[C@@H](CCN)NC(=O)[C@H]([C@@H](C)O)NC(=O)[C@H](CCN)NC(=O)[C@H](CCCNC(=N)N)NC1=O [Example 88, Val-Hyp-Ile-Thr-Tyr-Pen-Ile-Arg-Dab-Thr-^DDab-Lys-Cys-Dab-Orn-Tyr] (HELM PEPTIDE1{V.[Hyp].I.T.Y.[Pen].I.R.[Dab].T.[NCC[C@@H](N[*:1])C(=O)[*:2]].K.C.[Dab].[Orn].Y}$PEPTIDE1,PEPTIDE1,6:R3-13:R3$$$V2.0)	0.25	0.125	0.0625	<1
